What was measured:
[1] = system: MATIN; assay: Post-emergence action against MATIN; format: in vivo, Matricaria inodora; conditions: Tripleurospermum inodorum, 504 h; post-emergence, dosage 80 g/ha, visual assessment about 3 weeks after treatment vs untreated controls; read-out: Post-emergence action against MATIN (herbicidal action in percent)
Outline: (§1)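 Weeds grown in sandy loam in greenhouse, treated at one-leaf stage (2–3 weeks after sowing) with WP or EC formulations sprayed as aqueous suspension/emulsion at 600 to […] water with 0.2% wetting agent. Visual rating after about 3 weeks versus untreated controls, as % herbicidal action (100% = plants dead, 0% = like control).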

[2] = system: AMARE; assay: Pre-emergence action against AMARE; format: in vivo, Amaranthus retroflexus; conditions: Amaranthus retroflexus, 504 h; pre-emergence, dosage 320 g/ha, scored visually after 3 weeks vs untreated controls; read-out: Pre-emergence action against AMARE (herbicidal activity)
Outline: (§2)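 Seeds sown in sandy loam in wood-fiber pots and covered with soil. Greenhouse growth; visual damage scored after 3 weeks versus untreated controls (100% = dead, 0% = like control).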

[3] = system: POLCO; assay: Post-emergence action against POLCO; format: in vivo, Polygonum convolvulus; conditions: Fallopia convolvulus, 504 h; post-emergence, dosage 80 g/ha
Outline: as §1

[4] = system: LOLMU; assay: Post-emergence action against LOLMU; format: in vivo, Lolium multiflorum; conditions: Lolium multiflorum, 504 h, dosage 80 g/ha, visual assessment about 3 weeks after treatment vs untreated controls, read-out: Post-emergence action against LOLMU (herbicidal action in percent)
Outline: as §1

[5] = system: ECHCG; assay: Post-emergence action against ECHCG; format: in vivo, Echinochloa crus-galli; conditions: Echinochloa crus-galli, 504 h; post-emergence, dosage 80 g/ha, visual assessment about 3 weeks after treatment vs untreated controls; read-out: Post-emergence action against ECHCG (herbicidal action in percent)
Outline: as §1

[6] = system: STEME; assay: Post-emergence action against STEME; format: in vivo, Stellaria media; conditions: Stellaria media, 504 h; post-emergence, dosage 80 g/ha
Outline: as §1

[7] = system: POLCO; assay: Pre-emergence action against POLCO; format: in vivo, Polygonum convolvulus; conditions: Fallopia convolvulus, 504 h; Dosage 320 g/ha, pre-emergence
Outline: as §2

[8] = system: CYPES; assay: Post-emergence action against CYPES; format: in vivo, Cyperus esculentus; conditions: Cyperus esculentus, 504 h; post-emergence, dosage 80 g/ha, visual assessment about 3 weeks after treatment vs untreated controls; read-out: Post-emergence action against CYPES (herbicidal action in percent)
Outline: as §1

[9] = system: VIOTR; assay: Post-emergence action against VIOTR; format: in vivo, Viola tricolor; conditions: Viola tricolor, 504 h; post-emergence, dosage 80 g/ha
Outline: as §1

[10] = system: ABUTH; assay: Post-emergence action against ABUTH; format: in vivo, Abutilon theophrasti; conditions: Abutilon theophrasti, 504 h; post-emergence, dosage 80 g/ha, visual assessment about 3 weeks after treatment vs untreated controls; read-out: Post-emergence action against ABUTH (herbicidal action in percent)
Outline: as §1

[11] = system: AVEFA; assay: Pre-emergence action against AVEFA; format: in vivo, Avena fatua; conditions: Avena fatua, 504 h, dosage 320 g/ha, scored visually after 3 weeks vs untreated controls, read-out: Pre-emergence action against AVEFA (herbicidal activity)
Outline: as §2

[12] = system: MATIN; assay: Pre-emergence action against MATIN; format: in vivo, Matricaria inodora; conditions: Tripleurospermum inodorum, 504 h; Dosage 320 g/ha, pre-emergence
Outline: as §2

[13] = system: CYPES; assay: Pre-emergence action against CYPES; format: in vivo, Cyperus esculentus; conditions: Cyperus esculentus, 504 h; pre-emergence, dosage 320 g/ha, scored visually after 3 weeks vs untreated controls; read-out: Pre-emergence action against CYPES (herbicidal activity)
Outline: as §2

[14] = system: ABUTH; assay: Pre-emergence action against ABUTH; format: in vivo, Abutilon theophrasti; conditions: Abutilon theophrasti, 504 h; pre-emergence, dosage 320 g/ha, scored visually after 3 weeks vs untreated controls; read-out: Pre-emergence action against ABUTH (herbicidal activity)
Outline: as §2

[15] = system: SETVI; assay: Post-emergence action against SETVI; format: in vivo, Setaria viridis; conditions: Setaria viridis, 504 h; post-emergence, dosage 80 g/ha, visual assessment about 3 weeks after treatment vs untreated controls; read-out: Post-emergence action against SETVI (herbicidal action in percent)
Outline: as §1

[16] = system: VIOTR; assay: Pre-emergence action against VIOTR; format: in vivo, Viola tricolor; conditions: Viola tricolor, 504 h; Dosage 320 g/ha, pre-emergence
Outline: as §2

[17] = system: ALOMY; assay: Pre-emergence action against ALOMY; format: in vivo, Alopecurus myosuroides; conditions: Alopecurus myosuroides, 504 h; dosage 320 g/ha; pre-emergence; scored visually after 3 weeks vs untreated controls; 100% = plants have died, 0% = like control plants; read-out: Pre-emergence action against ALOMY (herbicidal activity in percent)
Outline: as §2

[18] = system: VERPE; assay: Pre-emergence action against VERPE; format: in vivo, Veronica persica; conditions: Veronica persica, 504 h; Dosage 320 g/ha, pre-emergence
Outline: as §2

[19] = system: SETVI; assay: Pre-emergence action against SETVI; format: in vivo, Setaria viridis; conditions: Setaria viridis, 504 h; pre-emergence, dosage 320 g/ha, scored visually after 3 weeks vs untreated controls; read-out: SETVI (Table B8, pre-emergence herbicidal activity)
Outline: as §2

[20] = system: ALOMY; assay: Post-emergence action against ALOMY; format: in vivo, Alopecurus myosuroides; conditions: Alopecurus myosuroides, 504 h; Dosage 80 g/ha, post-emergence
Outline: as §1

[21] = system: LOLMU; assay: Pre-emergence action against LOLMU; format: in vivo, Lolium multiflorum; conditions: Lolium multiflorum, 504 h, dosage 320 g/ha, scored visually after 3 weeks vs untreated controls, read-out: Pre-emergence action against LOLMU (herbicidal activity)
Outline: as §2

[22] = system: VERPE; assay: Post-emergence action against VERPE; format: in vivo, Veronica persica; conditions: Veronica persica, 504 h, dosage 80 g/ha
Outline: as §1

[23] = system: AVEFA; assay: Post-emergence action against AVEFA; format: in vivo, Avena fatua; conditions: Avena fatua, 504 h; post-emergence, dosage 80 g/ha, visual assessment about 3 weeks after treatment vs untreated controls; read-out: Post-emergence action against AVEFA (herbicidal action in percent)
Outline: as §1

[24] = system: ECHCG; assay: Pre-emergence action against ECHCG; format: in vivo, Echinochloa crus-galli; conditions: Echinochloa crus-galli, 504 h; pre-emergence, dosage 320 g/ha, scored visually after 3 weeks vs untreated controls; read-out: Pre-emergence action against ECHCG (herbicidal activity)
Outline: as §2

[25] = system: PHBPU; assay: Post-emergence action against PHBPU; format: in vivo, Pharbitis purpurea; conditions: Ipomoea purpurea, 504 h; post-emergence, dosage 80 g/ha
Outline: as §1

[26] = system: STEME; assay: Pre-emergence action against STEME; format: in vivo, Stellaria media; conditions: Stellaria media, 504 h; Dosage 320 g/ha, pre-emergence
Outline: as §2

[27] = system: AMARE; assay: Post-emergence action against AMARE; format: in vivo, Amaranthus retroflexus; conditions: Amaranthus retroflexus, 504 h; post-emergence, dosage 80 g/ha, visual assessment about 3 weeks after treatment vs untreated controls; read-out: Post-emergence action against AMARE (herbicidal action in percent)
Outline: as §1

Row | Compound | pest or weed control at 80 g/ha [1] [%] | pest or weed control at 320 g/ha [2] [%] | pest or weed control at 80 g/ha [3] [%] | pest or weed control at 80 g/ha [4] [%] | pest or weed control at 80 g/ha [5] [%] | pest or weed control at 80 g/ha [6] [%] | pest or weed control at 320 g/ha [7] [%] | pest or weed control at 80 g/ha [9] [%] | pest or weed control at 80 g/ha [10] [%] | pest or weed control at 320 g/ha [11] [%] | pest or weed control at 320 g/ha [12] [%] | pest or weed control at 320 g/ha [13] [%] | pest or weed control at 320 g/ha [14] [%] | pest or weed control at 80 g/ha [15] [%] | pest or weed control at 320 g/ha [16] [%] | pest or weed control at 320 g/ha [17] [%] | pest or weed control at 320 g/ha [18] [%] | pest or weed control at 320 g/ha [19] [%] | pest or weed control at 80 g/ha [20] [%] | pest or weed control at 320 g/ha [21] [%] | other results
1 | CC(=O)c1c(Cl)ccc(C(=O)Nc2nnnn2C)c1Cl [1-114] | 80 | 100 | 90 | 100 | 90 | 100 | 90 | 90 | 80 | 100 | 100 | 100 | 100 | 80 | 100 | 90 | 100 | 100 | 80 | 100 | pest or weed control at 80 g/ha [8]: 80%; pest or weed control at 80 g/ha [22]: 100%; pest or weed control at 80 g/ha [23]: 90%; pest or weed control at 320 g/ha [24]: 100%; pest or weed control at 80 g/ha [25]: 90%; pest or weed control at 320 g/ha [26]: 90%
2 | CSc1ccc(C(=O)Nc2nnnn2C)c(Cl)c1C(C)=O [1-121] | 100 | 100 | 80 | 90 | 90 | 100 | 90 | 90 | 90 | 90 | 100 | 90 | 90 | 90 | 100 | 90 | 100 | 100 | 90 | 90 | pest or weed control at 80 g/ha [27]: 90%; pest or weed control at 80 g/ha [22]: 100%; pest or weed control at 80 g/ha [23]: 90%; pest or weed control at 320 g/ha [24]: 100%; pest or weed control at 80 g/ha [25]: 90%; pest or weed control at 320 g/ha [26]: 90%

Source: patent publication US11051515B2, “3-acyl-benzamides and their use as herbicides” (Bayer Aktiengesellschaft, priority 2017, dated 2021)
